Columns and labels:
[1] = system: 3 PPAR isoforms; experiment: PPAR agonist properties of compound 1, different method and equipment (not described)
Procedure: The measured activities differ depending on the compound tested and the compounds according to the invention are also observed to have varying selectivity with respect to the various isoforms of hPPAR: • Certain compounds according to the invention are selective for a subtype of PPAR. […] Compound 1 of the invention was also tested for its PPAR agonist properties. […] As the measurements obtained for compound 1 were carried out according to a different method and with different equipment, relative to the other 53 compounds in the examples, the corresponding results are not presented in Table 8-1 above.

[2] = molecular target: T1, hPPARα (Homo sapiens, UniProt Q07869); experiment: Gal4-hPPARα chimera transactivation (luciferase) in COS-7 cells; assay type: cell-based; conditions: COS-7 cells, Gal4-hPPARα, 24 hours; for EC50: luciferase, read-out: PPARα EC50; for Emax: relative to maximum activation obtained with fenofibric acid, read-out: PPARα TOP % (maximum activation)
T1 construct: corresponding to the DEF domains (structural elements of the promoter of the PPARs: D=hinge, EF=ligand fixation domain and AF2 fixation site); expressed in transfected cells; host or cells: COS-7 (monkey kidney fibroblasts)
T1 sequence (Q07869 239-466 limits assumed): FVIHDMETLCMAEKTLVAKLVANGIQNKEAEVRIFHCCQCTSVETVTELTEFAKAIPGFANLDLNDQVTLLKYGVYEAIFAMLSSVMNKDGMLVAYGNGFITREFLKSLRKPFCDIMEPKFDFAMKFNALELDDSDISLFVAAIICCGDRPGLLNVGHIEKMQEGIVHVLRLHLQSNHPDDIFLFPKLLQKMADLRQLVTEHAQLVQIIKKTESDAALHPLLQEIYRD
In short: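 COS-7 cells transiently co-transfected with Gal4 DBD–human PPARα, γ or δ DEF-domain chimeras plus Gal4(RE)_TkpGL3 luciferase reporter (1/10), seeded serum-free, then compound-treated 24 h at 37 °C in 1% Ultroser. Luciferase read after lysis; EC50 and TOP % relative to maximal activation by fenofibric acid (α), rosiglitazone (γ) or GW501516 (δ).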

[3] = molecular target: T2, hPPARγ (Homo sapiens, UniProt P37231); experiment: Gal4-hPPARγ chimera transactivation (luciferase) in COS-7 cells; assay type: cell-based; conditions: 24 hours; for EC50: luciferase, read-out: PPARγ EC50; for Emax: relative to maximum activation obtained with rosiglitazone, read-out: PPARγ TOP % (maximum activation)
T2 construct: corresponding to the DEF domains (structural elements of the promoter of the PPARs: D=hinge, EF=ligand fixation domain and AF2 fixation site); expressed in transfected cells; host or cells: COS-7 (monkey kidney fibroblasts)
T2 sequence (P37231 238-503 limits assumed): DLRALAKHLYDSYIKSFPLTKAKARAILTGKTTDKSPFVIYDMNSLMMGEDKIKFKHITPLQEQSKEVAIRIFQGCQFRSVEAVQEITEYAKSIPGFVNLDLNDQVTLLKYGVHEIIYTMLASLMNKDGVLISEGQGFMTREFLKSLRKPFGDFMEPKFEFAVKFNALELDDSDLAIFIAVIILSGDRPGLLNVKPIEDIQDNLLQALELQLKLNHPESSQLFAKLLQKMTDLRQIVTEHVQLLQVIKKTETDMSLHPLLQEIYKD
In short: (§1)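 COS-7 cells transfected with Gal4-DBD fused to human PPARγ or PPARδ DEF (hinge/ligand-binding) domain plus Gal4(RE)_TkpGL3 luciferase reporter (1:10).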

[4] = system: PPARδ target genes (PDK4, CPT1b, UCP2) in murine myocytes; experiment: Expression of PPARδ target genes in murine myocytes (differentiated C2C12 cells); assay type: cell-based; conditions: 24 hours, Cpd 7 at 0.1, 1, 10 μM, Cpd 24 at 0.2, 2, 20 μM, normalized to 36B4
Procedure: The PPARδ agonist properties previously measured in vitro were evaluated by measuring, in murine myocytes, the expression of genes involved in lipid and carbohydrate metabolism and energy expenditure (PDK4, CPT1b, UCP2). Regulation of expression of these genes, in this cell type, is a direct consequence of the activation of PPARδ by the compounds according to the invention. The greater the increase in expression of the genes, the more the compound according to the invention is a stimulator of metabolism in muscle cells (Dressel U et al., 2003).
The C2C12 murine cells (from ECACC) are cultivated in DMEM medium (Gibco; 41965-039) supplemented with 1% L-glutamine (Gibco; 25030), 1% penicillin/streptomycin (VWR; BWSTL0022/100) and 10% decomplemented fetal calf serum (FCS. Gibco; 10270-106).
The cells are seeded in 24-well plates at a density of 50×10^3 cells/well. At confluence, the medium is replaced with a differentiation medium (base culture medium supplemented with 2% of horse serum (Gibco; 26050-088)) then culture is continued at 37° C. and 5% CO2 for 7 days in order to permit differentiation of the myoblasts into myocytes.
After 6 days of differentiation, the cells are put in a deprivation medium (base culture medium without serum) for 6 hours. The cells are then treated with the compounds according to the invention in the deprivation medium. The compounds according to the invention were tested at doses of 0.1, 1, 10 μM and 0.2, 2 and 20 μM respectively. The compounds according to the invention were dissolved in dimethylsulfoxide (DMSO, Sigma; D5879). The cells are treated for 24 hours at 37° C., 5% CO2. The effects for the compounds tested were compared with the effect of DMSO alone at a concentration of 0.1%.
These procedures were performed on the cells essentially as described in Example 10 (point c) of the Protocols.
The following primer pairs specific to the genes investigated were used: […]

[5] = molecular target: T3, hPPARδ (Homo sapiens, UniProt Q03181); experiment: Gal4-hPPARδ chimera transactivation (luciferase) in COS-7 cells; assay type: cell-based; conditions: for EC50 / Emax: COS-7 cells, Gal4-hPPARδ, 24 hours; for EC50: luciferase, read-out: PPARδ EC50; for Emax: relative to maximum activation obtained with GW501516, read-out: PPARδ TOP % (maximum activation)
T3 construct: corresponding to the DEF domains (structural elements of the promoter of the PPARs: D=hinge, EF=ligand fixation domain and AF2 fixation site); expressed in transfected cells; host or cells: COS-7 (monkey kidney fibroblasts)
T3 sequence (Q03181 211-439 limits assumed): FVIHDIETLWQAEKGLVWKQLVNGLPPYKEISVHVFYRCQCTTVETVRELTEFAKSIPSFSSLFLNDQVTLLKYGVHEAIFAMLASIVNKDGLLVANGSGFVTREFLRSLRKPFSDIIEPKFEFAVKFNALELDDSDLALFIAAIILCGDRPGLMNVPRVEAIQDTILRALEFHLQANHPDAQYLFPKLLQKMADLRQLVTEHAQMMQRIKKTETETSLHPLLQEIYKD
In short: as §1

[6] = system: 3T3-L1 murine pre-adipocytes; experiment: PPARγ functional effect: adipogenesis in 3T3-L1 pre-adipocytes (triglycerides, adiponectin); assay type: cell-based, Mus musculus; conditions: 3T3-L1, 9 days of treatment, 30 nM to 30 μM
Procedure: The functional effect of activation of PPARγ is evaluated in vitro on a line of pre-adipocyte cells 3T3-L1 (Thompson G M et al., 2004) by measuring the concentration of intracellular triglycerides and the concentration of adiponectin secreted in the culture medium after 9 days of treatment with the compounds according to the invention.
At confluence, the cells were then rinsed with PBS (Phosphate Buffered Saline solution) and the culture medium was replaced with DMEM 4.5 g/L glucose (10% FCS, 1% L-glutamine, 100 units/mL penicillin and 100 μg/mL streptomycin, 0.25 mM) containing a cocktail for initiation of adipocyte differentiation (IBMX (3-isobutyl-1-methylxanthine Sigma; 17018), 0.1 μM dexamethasone (Sigma; D1756) and 0.4 μM of insulin (Sigma; I2643). The cells were also treated with the compounds according to the invention (1 μL of solubilized compound/mL of medium, 200 μL per well).
After 2 days of incubation, the cells were washed with PBS and the differentiation medium was replaced with DMEM 4.5 g/L of glucose supplemented with 10% FCS, 1% L-glutamine, 100 units/mL penicillin and 100 μg/mL streptomycin, 0.4 μM insulin, and the compounds according to the invention for the purpose of completing cellular differentiation and obtaining adipocytes. The medium was changed every 2 days until total differentiation. After culture for 9 days, the treatment was stopped by withdrawing the culture medium, which was stored for assaying secreted adiponectin. The cells were then washed twice with PBS and placed in isopropanol for membrane permeabilization. The content of intracellular triglycerides was evaluated immediately.
Quantification of intracellular triglycerides was performed with the “Triglyceride Enzymatic PAP1000” kit (bioMérieux; 61238) according to the supplier's recommendations. Secreted adiponectin was measured in the culture medium using the “Mouse Adiponectin/Acrp30 Elisa Kit” kit (R&D Systems; DY1119) according to the supplier's recommendations.

| SMILES | selectivities for the 3 PPAR isoforms [1] | EC50 [2] [nM] | Emax [2] [%] | EC50 [3] [nM] | Emax [3] [%] | expression of CPT1b [4] | expression of PDK4 [4] | expression of UCP2 [4] | EC50 [5] [nM] | selectivity among hPPAR isoforms (hPPARδ) ([5]; Gal4-hPPAR chimeras, COS-7) | Emax [5] [%] | accumulation of triglycerides in adipocytes [6] | secretion of adiponectin [6] |
| --- | --- | --- | --- | --- | --- | --- | --- | --- | --- | --- | --- | --- | --- |
| COc1nc(-c2ccccc2)ccc1COc1ccc(OC(C)(C)C(=O)O)cc1 [Cpd 1, 2-(4-((2-methoxy-6-phenylpyridin-3-yl)methoxy)phenoxy)-2-methyl-propanoic acid] | comparable selectivities for the 3 PPAR isoforms | – | – | – | – | – | – | – | – | – | – | – | – |
| CC(C)(C)Oc1nc(-c2ccccc2)ccc1COc1ccc(OCC(=O)O)cc1 [Cpd 7] | – | 39600 | 28.9 | 46800 | 20.6 | significant effects of stimulating expression | significant effects of stimulating expression | significant effects of stimulating expression | 550 | selective with respect to hPPARδ | 96.5 | – | – |
| COc1nc(-c2ccc(C(F)(F)F)cc2)ccc1CNc1ccc(CCC(=O)O)cc1 [Cpd 36, 3-(4-(((2-methoxy-6-(4-(trifluoromethyl)phenyl)pyridin-3-yl)methyl)amino)-phenyl)propanoic acid] | – | 304 | 78 | 1520 | 123 | – | – | – | 595 | – | 93.9 | dose-dependent stimulation | dose-dependent stimulation |

From patent US8461183B2, “PPAR agonist compounds, preparation and uses” (Genfit, priority 2008, dated 2013)
